Results taken from patent publication US8716289B2, “Carbamate derivatives of alkyl-heterocycles, preparation thereof and therapeutic use thereof” (Sanofi, priority 2008, dated 2014).

melting point [°C]	Compound
181.5 to 183.5	CNC(=O)c1cc(COC(=O)NCCC2CCN(c3cnc(-c4ccc(F)cc4)cn3)CC2)on1 [Compound 69, 3-methylcarbamoylisoxazol-5-ylmethyl (2-{1-[5-(4-fluorophenyl)pyrazin-2-yl]piperidin-4-yl}ethyl)carbamate]
200 to 202	NC(=O)c1cc(COC(=O)NCCC2CCN(c3ccc4cc(F)ccc4n3)CC2)on1 [Compound 23, 3-carbamoylisoxazol-5-ylmethyl 2-[1-(6-fluoroquinolin-2-yl)piperidin-4-yl]ethylcarbamate]
200 to 202	CNC(=O)c1cc(COC(=O)NCCC2CCN(c3ccc4cc(Cl)ccc4n3)CC2)on1 [Compound 20, 3-methylcarbamoylisoxazol-5-ylmethyl 2-[1-(6-chloroquinolin-2-yl)piperidin-4-yl]ethylcarbamate]
187 to 189	NC(=O)c1cc(COC(=O)NCCC2CCN(c3cnc(-c4ccc(F)cc4)cn3)CC2)on1 [Compound 68, 3-carbamoylisoxazol-5-ylmethyl (2-{1-[5-(4-fluorophenyl)-pyrazin-2-yl]piperidin-4-yl}ethyl)carbamate]
146 to 148	O=C(NCCC1CCN(c2ccc3cc(Cl)ccc3n2)CC1)OCc1csnn1 [Compound 18, [1,2,3]thiadiazol-4-ylmethyl 2-[1-(6-chloroquinolin-2-yl)piperidin-4-yl]ethylcarbamate]
154 to 156	COc1ccc(-c2nnc(COC(=O)NCCC3CCN(c4ccc5cc(Cl)ccc5n4)CC3)o2)cc1 [Compound 14, 5-(4-methoxyphenyl)[1,3,4]oxadiazol-2-ylmethyl 2-[1-(6-chloroquinolin-2-yl)piperidin-4-yl]ethylcarbamate]
112 to 113	CC(C)c1nc(COC(=O)NCCC2CCN(c3ccc(-c4ccc(F)cc4)cn3)CC2)no1 [Compound 11, 5-isopropyl[1,2,4]oxadiazol-3-ylmethyl 2-[5′-(4-fluorophenyl)-3,4,5,6-tetrahydro-2H-[1,2′]bipyridinyl-4-yl]-ethylcarbamate]
134 to 136	O=C(NCCC1CCN(c2ccc3cc(Cl)ccc3n2)CC1)OCc1nc(-c2cccc(F)c2)no1 [Compound 16, 3-(3-fluorophenyl)[1,2,4]oxadiazol-5-ylmethyl 2-[1-(6-chloroquinolin-2-yl)piperidin-4-yl]ethylcarbamate]
191 to 193	CNC(=O)c1cc(COC(=O)NCCC2CCN(c3ccc(-c4ccc(F)cc4)cn3)CC2)on1 [Compound 26, 3-methylcarbamoylisoxazol-5-ylmethyl 2-[5′-(4-fluorophenyl)-3,4,5,6-tetrahydro-2H-[1,2′]bipyridinyl-4-yl]-ethylcarbamate]
136 to 138	CCOC(=O)c1cc(COC(=O)NCC2(F)CCN(c3nccc(C(F)(F)F)n3)CC2)on1 [Compound 51, ethyl 5-[4-fluoro-1-(4-trifluoromethylpyrimidin-2-yl)-piperidin-4-ylmethylcarbamoyloxymethyl]isoxazole-3-carboxylate]
139 to 140	CC(C)(C)c1nnc(COC(=O)NCCC2CCN(c3ccc(-c4ccc(F)cc4)cn3)CC2)s1 [Compound 10, 5-tert-butyl[1,3,4]thiadiazol-2-ylmethyl 2-[5′-(4-fluorophenyl)-3,4,5,6-tetrahydro-2H-[1,2′]bipyridinyl-4-yl]-ethylcarbamate]
167 to 169	CNC(=O)c1cc(COC(=O)NCCC2(C)CCN(c3cnc4cc(Cl)ccc4n3)CC2)on1 [Compound 78, 3-methylcarbamoylisoxazol-5-ylmethyl {2-[1-(6-chloroquinoxalin-2-yl)-4-methylpiperidin-4-yl]ethyl}carbamate]
134 to 136	O=C(NCCC1CCN(c2ccc3cc(Cl)ccc3n2)CC1)OCc1nc(-c2ccc(Cl)cc2)no1 [Compound 4, 3-(4-chlorophenyl)[1,2,4]oxadiazol-5-ylmethyl 2-[1-(6-chloroquinolin-2-yl)piperidin-4-yl]ethylcarbamate]
